Experiments:
HepG2 cells = assay: Testing of TC/TG in HepG2 cells incubated with FFA (oleic acid and palmitate); type: cell-based, human; details: 20 μM compound, 0.5 mmol/L FFA, 24 h; for reduction of the increase in TG level of HepG2 cell induced by oleic acid and palmitate: FIG. 1A; for reduction of the increase in TC level of HepG2 cell induced by oleic acid and palmitate: FIG. 1B
Procedure: Cell TC/TG was tested using Nanjing Jiancheng TG test kit and TC test kit. HepG2 cells were incubated with 0.5 mmol/L FFA (oleic acid and palmitate mixed at a ratio of 2:1) and a solvent or different concentrations (20 μM, 40 μM, 80 μM) of compounds for 24 h. The culture medium was discarded and the cells were washed once with 0.01 M PBS (pH 7.4). The cells were scraped off with a cell scraper. 2-5 mL of 0.01 M PBS (pH 7.4) was then added. The cell suspension was collected and then centrifuged at 1000×g, 4° C. for 10 min. According to the ratio of 10^6 cells/300-500 μL of homogenization medium, isopropyl alcohol was added for mechanical homogenization, such that the cells were thoroughly disrupted until there was no obvious cell precipitation. The cell solution was centrifuged at 10000×g, 4° C. for 10 min. The supernatant was taken and placed on ice for testing. 2.5 μL of distilled water, standard products or samples were well mixed with […] respectively. After incubation at 37° C. for 10 min, the absorbance value of each well was tested with a microplate reader at 510 nm. Calculation formula for TC/TG concentration: sample concentration (mmol/g protein)=(ODsample−ODblank)/(ODstandard−ODblank)×standard product concentration (mmol/L)/protein concentration (g protein/L).
Preparation of protein standard: a. 1.2 mL of standard protein solution was added to a tube of protein standard (30 mg BSA), and a 25 mg/mL standard protein solution was obtained after the protein standard was thoroughly dissolved. b. An appropriate amount of 25 mg/mL protein standard was diluted to the final concentration of 0.5 mg/mL. Preparation of BCA working solution: according to the number of samples, reagent A for the BCA working solution and reagent B for BCA working solution (v/v: 50:1) were well mixed to prepare an appropriate amount of BCA working solution. Determination of protein concentration: a. 0, 1, 2, 4, 8, 12, 16, and 20 μL of the protein standard were respectively added into the standard wells of the 96-well plate, and the diluted standard solution was then added to make up to 20 μL, which is equivalent to obtaining standard concentrations of 0, 0.025, 0.05, 0.1, 0.2, 0.3, 0.4, and 0.5 mg/mL, respectively. b. An appropriate volume of sample was added to the sample wells of the 96-well plate. If the sample is less than 20 μL, the diluted standard solution should be added to make up to 20 μL. c. […] was added to each well and the well plate was set still at 37° C. for 20-30 min. d. The absorbance at A562 nm was determined with a microplate reader. e. The protein concentrations of the samples were calculated according to the standard curves and the sample volumes used.

FXR = biological target: T1, FXR (Homo sapiens, UniProt Q96RI1); assay: FXR antagonist screening by TR-FRET (LanthaScreen TR-FRET FXR co-activation assay kit); type: biochemical; details: Table 1.1, FXR antagonistic activity; TR-FRET with CDCA; geometric means of at least two independent runs
T1 construct: 5 μL of 20 nM FXR-LBD Complete Coregulator buffer G; purchased ThermoFisher PV4833
T1 sequence (Q96RI1 262-486 limits assumed): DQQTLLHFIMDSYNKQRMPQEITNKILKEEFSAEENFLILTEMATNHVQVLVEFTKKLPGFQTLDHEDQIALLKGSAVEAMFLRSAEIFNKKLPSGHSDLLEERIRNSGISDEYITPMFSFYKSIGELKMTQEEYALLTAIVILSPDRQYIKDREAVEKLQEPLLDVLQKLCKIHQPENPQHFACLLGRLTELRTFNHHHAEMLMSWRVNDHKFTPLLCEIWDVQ
Outline: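 FXR-LBD (20 nM working solution) mixed with compound, CDCA (200 μM working solution) as agonist, Fluorescein-SRC2-2 and Tb-anti-GST antibody in Coregulator buffer G; 10 h at room temperature. Coactivator recruitment read by TR-FRET, triplicate wells.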

| Structure (SMILES) | reduction of the increase in TG level of HepG2 cell induced by oleic acid and palmitate (HepG2 cells) | reduction of the increase in TC level of HepG2 cell induced by oleic acid and palmitate (HepG2 cells) | melting point | IC50 (FXR) |
| --- | --- | --- | --- | --- |
| CC(=O)C1=CC[C@H]2[C@@H]3CC=C4C[C@@H](O)CC[C@]4(C)[C@H]3CC[C@]12C [Centatin, 1-((3S, 8R, 9S, 10R, 135, 14S)-3-hydroxy-10,13-dimethyl-2,3,4,7,8,9,10,11,12,13,14,15-dodecahydro-1H-cyclopenta[a]phenanthren-17-yl)ethan-1-one] | significantly reduce | significantly reduce |  |  |
| Cc1c(C(=O)O)oc2ccc(S(=O)(=O)N(CCc3ccccc3)Cc3ccc(-c4ccccc4C(=O)OC(C)(C)C)cc3)cc12 [Example F27-S84, 3-methyl-5-(N-((2′-(tert-butoxycarbonyl)-[1,1′-biphenyl]-4-yl)methyl)-N-phenethylsulfamoyl)benzofuran-2-carboxylic acid] |  |  | 197 to 198 °C | 10 to 50 µM |
| Cc1c(C(=O)O)oc2ccc(S(=O)(=O)N(CCc3ccccc3)Cc3ccc(C(=O)c4ccccc4)cc3)cc12 [Example F27-S85, 3-methyl-5-(N-(4-benzoylbenzyl)-N-phenethylsulfamoyl)benzofuran-2-carboxylic acid] |  |  | 192 to 193 °C | 10 to 50 µM |
| Cc1c(C(=O)O)oc2ccc(S(=O)(=O)N(CCc3ccccc3)Cc3cccc(N4CCN(C(=O)OC(C)(C)C)CC4)c3)cc12 [Example F27-S88, 3-methyl-5-(N-(3-(4-(tert-butoxycarbonyl)piperazin-1-yl)benzyl)-N-phenethylsulfamoyl)benzofuran-2-carboxylic acid] |  |  | 104 to 105 °C | 0.1 to 10 µM |
| Cc1c(C(=O)O)oc2ccc(S(=O)(=O)N(CCc3ccccc3)c3ccccc3N3CCNCC3)cc12 [Example F27-S89, 3-methyl-5-(N-phenethyl-N-(2-(piperazin-1-yl)phenyl)sulfamoyl)benzofuran-2-carboxylic acid] |  |  | 172 to 173 °C | 50 to 100 µM |
| Cc1c(C(=O)O)oc2ccc(S(=O)(=O)N(CCc3ccccc3)c3ccccc3N3CC[N+](C)(C)CC3)cc12 [Example F27-S90, 4-(2-((2-carboxy-3-methyl-N-phenethylbenzofuran)-5-sulfonylamino)phenyl)-1,1-dimethylpiperazin-1-ium] |  |  | 246 to 247 °C | 50 to 100 µM |
| CC(=O)N1CCN(c2ccccc2N(CCc2ccccc2)S(=O)(=O)c2ccc3oc(C(=O)O)c(C)c3c2)CC1 [Example F27-S91, 3-methyl-5-(N-(2-(4-acetylpiperazin-1-yl)phenyl)-N-phenethylsulfamoyl)benzofuran-2-carboxylic acid] |  |  | 196 to 197 °C | 50 to 100 µM |
| Cc1c(C(=O)O)oc2ccc(S(=O)(=O)N(CCc3ccccc3)c3ccccc3N3CCN(C(=O)N(C)C)CC3)cc12 [Example F27-S92, 3-methyl-5-(N-(2-(4-(dimethylcarbamoyl)piperazin-1-yl)phenyl)-N-phenethylsulfamoyl)benzofuran-2-carboxylic acid] |  |  | > 380 °C (dec.) | 10 to 50 µM |
| Cc1c(C(=O)O)oc2ccc(S(=O)(=O)N(CCc3ccccc3)c3ccccc3N3CCN(S(C)(=O)=O)CC3)cc12 [Example F27-S93, 3-methyl-5-(N-(2-(4-(methylsulfonyl)piperazin-1-yl)phenyl)-N-phenethylsulfamoyl)benzofuran-2-carboxylic acid] |  |  | 144 to 145 °C | 10 to 50 µM |
| Cc1c(C(=O)O)oc2ccc(S(=O)(=O)N(CCc3ccccc3)c3ccccc3N3CCN(C(=O)CC(C)(C)C)CC3)cc12 [Example F27-S94] |  |  | 191 to 192 °C | 0.1 to 10 µM |
| Cc1c(C(=O)O)oc2ccc(S(=O)(=O)N(CCc3ccccc3)c3ccccc3N3CCN(Cc4ccccc4)CC3)cc12 [Example F27-S95] |  |  | 161 to 162 °C | 10 to 50 µM |
| Cc1c(C(=O)O)oc2ccc(S(=O)(=O)N(CCc3ccccc3)Cc3ccccc3N3CCNCC3)cc12 [Example F27-S97, 3-methyl-5-(N-(2-(piperazin-1-yl)benzyl)-N-phenethylsulfamoyl)benzofuran-2-carboxylic acid] |  |  | 223 to 224 °C | 50 to 100 µM |
| Cc1c(C(=O)O)oc2ccc(S(=O)(=O)N(CCc3ccccc3)Cc3ccccc3N3CC[N+](C)(C)CC3)cc12 [Example F27-S99, 4-(2-(((2-carboxy-3-methyl-N-phenethylbenzofuran)-5-sulfonamido)methyl)phenyl)-1,1-dimethylpiperazin-1-ium] |  |  | 143 to 144 °C | 50 to 100 µM |
| CC(=O)N1CCN(c2ccccc2CN(CCc2ccccc2)S(=O)(=O)c2ccc3oc(C(=O)O)c(C)c3c2)CC1 [Example F27-S100, 3-methyl-5-(N-(2-(4-acetylpiperazin-1-yl)benzyl)-N-phenethylsulfamoyl)benzofuran-2-carboxylic acid] |  |  | 236 to 237 °C | 10 to 50 µM |
| Cc1c(C(=O)O)oc2ccc(S(=O)(=O)N(CCc3ccccc3)Cc3ccccc3N3CCN(S(C)(=O)=O)CC3)cc12 [Example F27-S102, 3-methyl-5-(N-(2-(4-(methylsulfonyl)piperazin-1-yl)benzyl)-N-phenethylsulfamoyl)benzofuran-2-carboxylic acid] |  |  | 150 to 151 °C | 50 to 100 µM |
| Cc1c(C(=O)O)oc2ccc(S(=O)(=O)N(CCc3ccccc3)Cc3ccccc3N3CCN(C(=O)CC(C)(C)C)CC3)cc12 [Example F27-S103] |  |  | 190 to 191 °C | 10 to 50 µM |
| Cc1c(C(=O)O)oc2ccc(S(=O)(=O)N(CCc3ccccc3)Cc3ccccc3N3CCN(Cc4ccccc4)CC3)cc12 [Example F27-S104, 3-methyl-5-(N-(2-(4-benzylpiperazin-1-yl)benzyl)-N-phenethylsulfamoyl)benzofuran-2-carboxylic acid] |  |  | 154 to 155 °C | 50 to 100 µM |
| Cc1ccc(C)c(OCCCC(C)(C)C(=O)NCC(=O)c2ccc(O)cc2)c1 [SIPI-7623, 5-(2,5-dimethylphenoxy)-N-(2-(4-hydroxyphenyl)-2-oxoethyl)-2,2-dimethylpentanamide] | significantly reduce | significantly reduce |  |  |
| C/C=C1\C(=O)C[C@H]2[C@@H]3CCC4=CC(=O)CC[C@]4(C)[C@H]3CC[C@]12C [Z-GS] | significantly reduce | significantly reduce |  |  |
